# Data as given in publication PMC9112550, “Optimization of the antimicrobial peptide Bac7 by deep mutational scanning” (BMC Biology, 2022).
# System: E. coli TOP10
# Test: Single-strain growth experiments, intracellular peptide expression
# Type: cell-based
# Details: negative control, expressed in E. coli TOP10
# Description: To assess the antimicrobial activity of single peptides when expressed intracellularly in E. coli TOP10, a monoclonal strain carrying the pBAD plasmid containing a single peptide gene was picked from solid media, incubated overnight, and inoculated into a fresh LB medium containing 0.3% (w/v) L-arabinose to a final OD of 0.01 into 96-well microtiter plate (Greiner). Growth of strains was recorded by measuring OD in a Tecan Infinite 200 PRO (Tecan, Männedorf, CH) for at least 4 h (37°C, 1.5 mm orbital shaking).
substance,measurement,value
HNP-1: inactive peptide HNP-1 expressed as the negative control,activity on intracellular expression,inactive
